The record followed here is ChEMBL document CHEMBL1777711, “Synthesis and bioactivity of new Finasteride conjugate” (Bioorg Med Chem Lett, 2011).

The source made the active and inactive calls. The calls are words filed in the database; no cut-off is given here.

In data set [1] the test system is Rattus norvegicus. The experiment in a line: Inhibition of testosterone propionate-induced castrated Wistar rat benign prostatic hyperplasia model assessed as decrease in prostate weight at 10 mg/kg, iv for 14 days. It counts as functional, organism-based. Also on record: dose 10 mg/kg. Particulars: Wister, Prostate gland.
Data set [2] relates to Rattus norvegicus. The experiment in a line: Inhibition of testosterone propionate-induced castrated Wistar rat benign prostatic hyperplasia model assessed as decrease in seminal vesicles weight at 10 mg/kg, iv for 14 days. It counts as functional, organism-based. Details: dose 10 mg/kg. Particulars: Wister.
The target in data set [3] is T1, 3-oxo-5-alpha-steroid 4-dehydrogenase 2 (Rattus norvegicus, UniProt P31214).
T1 sequence (P31214 whole entry): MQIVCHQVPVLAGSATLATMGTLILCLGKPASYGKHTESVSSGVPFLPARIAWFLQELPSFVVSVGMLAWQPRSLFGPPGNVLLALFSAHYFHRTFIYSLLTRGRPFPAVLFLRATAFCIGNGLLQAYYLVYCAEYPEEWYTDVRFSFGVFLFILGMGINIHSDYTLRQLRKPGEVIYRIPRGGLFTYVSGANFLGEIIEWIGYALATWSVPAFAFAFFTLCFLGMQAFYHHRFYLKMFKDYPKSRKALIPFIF
The experiment in a line: Inhibition of rat 5-alpha-reductase type 2 by Lineweaver-Burk plot.

The test system of data set [4] is Rattus norvegicus. The experiment in a line: Toxicity in testosterone propionate-induced castrated Wistar rat benign prostatic hyperplasia model assessed as body weight at 2 to 50 mg/kg, iv for 14 days. It counts as organism-based, Wister. Particulars: in vivo, 336 h. Also on record: dose 2-50 mg/kg, route intravenous.
The test system of data set [5] is Rattus norvegicus. The experiment in a line: Inhibition of testosterone propionate-induced castrated Wistar rat benign prostatic hyperplasia model assessed as decrease in prostate weight at 2 mg/kg, iv for 14 days. Also on record: dose 2 mg/kg. Particulars: Wister, Prostate gland. It counts as functional, organism-based.
Data set [6] has as its system Rattus norvegicus. The experiment in a line: Inhibition of testosterone propionate-induced castrated Wistar rat benign prostatic hyperplasia model assessed as decrease in seminal vesicles weight at 2 mg/kg, iv for 14 days. Particulars: Wister. Also on record: dose 2 mg/kg. It counts as functional, organism-based.
Data set [7] deals with Rattus norvegicus. The experiment in a line: Inhibition of testosterone propionate-induced castrated Wistar rat benign prostatic hyperplasia model assessed as decrease in prostate weight at 50 mg/kg, iv for 14 days. It counts as functional, organism-based. Also on record: dose 50 mg/kg. The following applies: Wister, Prostate gland.
In data set [8] the test system is Rattus norvegicus. Kind of data set: Inhibition of testosterone propionate-induced castrated Wistar rat benign prostatic hyperplasia model assessed as decrease in seminal vesicles weight at 50 mg/kg, iv for 14 days. It counts as functional, organism-based. Also on record: dose 50 mg/kg. Particulars: Wister.
Data set [9] deals with Rattus norvegicus. The experiment in a line: Inhibition of testosterone propionate-induced castrated Wistar rat benign prostatic hyperplasia model assessed as prostate gland arrangement order at 10 mg/kg, iv by histochemistry. Details: dose 10 mg/kg. The following applies: Wister. It counts as functional, organism-based.
Data set [10] deals with Rattus norvegicus. Kind of data set: Inhibition of testosterone propionate-induced castrated Wistar rat benign prostatic hyperplasia model assessed as decrease in pseudostratified epithelia at 10 mg/kg, iv by histochemistry. It counts as functional, organism-based. Details: dose 10 mg/kg. The following applies: Wister.
The test system of data set [11] is Rattus norvegicus. Kind of data set: Inhibition of testosterone propionate-induced castrated Wistar rat benign prostatic hyperplasia model assessed as decrease in epithelial protrusions at 10 mg/kg, iv by histochemistry. It counts as functional, organism-based. Also on record: dose 10 mg/kg. Particulars: Wister.
In data set [12] the test system is Rattus norvegicus. The experiment in a line: Inhibition of testosterone propionate-induced castrated Wistar rat benign prostatic hyperplasia model assessed as decrease in hyperplasia of interstitial tissues at 10 mg/kg, iv by histochemistry. It counts as functional, organism-based. Also on record: dose 10 mg/kg. The following applies: Wister.
Data set [13] has as its system Rattus norvegicus. The experiment in a line: Toxicity in testosterone propionate-induced castrated Wistar rat benign prostatic hyperplasia model assessed as vital signs at 10 mg/kg, iv […]. Also on record: dose 10 mg/kg, route intravenous. Particulars: in vivo. It counts as organism-based, Wister.

On to `CC(C)(C)N(C(=O)C1CSCN1C(=O)C1CCC(=O)N1)C(=O)[C@H]1CC[C@H]2[C@@H]3CC[C@H]4NC(=O)C=C[C@]4(C)[C@H]3CC[C@]12C` (stereo partly specified), for which the inhibition entry in data set [1], in data set [2], in data set [5], in [6], in data set [7] and in data set [8] was “Active” in each case. In addition, the inhibition result in data set [9], in [10], in data set [11] and in data set [12] was “Active” each time. Half-maximal inhibition in [3] (IC50) required 88 nM. Also, the Activity result in data set [4] and in data set [13] was “Non-toxic” throughout.

As to `CC(C)(C)NC(=O)[C@H]1CC[C@H]2[C@@H]3CC[C@H]4NC(=O)C=C[C@]4(C)[C@H]3CC[C@]12C` [FINASTERIDE], the inhibition result in [1], in data set [2], in data set [9], in data set [10], in data set [11] and in [12] was “Active” throughout. For the same molecule, the half-inhibitory concentration (IC50) in data set [3] was found to be 147 nM. Besides, in [4], the Activity result is given as “Non-toxic”.
